Patent publication US12077534B2, “Aza-heterobicyclic inhibitors of MAT2A and methods of use for treating cancer” (Les Laboratoires Servier SAS, priority 2018, dated 2024)
pIC50: −log10 of the molar value.

Legend:
[1] = system: HCT116 MTAP−/−; test: Inhibition of cellular proliferation (Cell Titer Glo), HCT116 MTAP-/-; type: cell-based; settings: Homo sapiens, HCT-116, 96 h, 4 days, read-out: 4 Day Relative Growth Inhibition (MTAP −/−)
How it was run: (§1)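 Isogenic HCT116 MTAP+/+ and MTAP−/− cells treated 24 h after plating with 10-point 3-fold dilutions, then grown 4 days at 37 °C/5% CO2. ATP content read by Cell Titer Glo luminescence, blank-subtracted and normalized to 0.2% DMSO control, plotted as percent proliferation change versus log molar concentration.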

[2] = system: HCT116 MTAP+/+; test: Inhibition of cellular proliferation (Cell Titer Glo), HCT116 MTAP+/+; type: cell-based; settings: Homo sapiens, HCT-116, 96 h, 4 days, read-out: 4 Day Relative Growth Inhibition (MTAP +/+)
How it was run: as §1

[3] = system: MAT2A activity (SAM) in HCT116 cells with deleted MTAP gene; test: Cellular assay of target engagement (SAM) by LC-MS/MS; type: cell-based; settings: Homo sapiens, HCT-116; HCT116 MTAP −/−, 72 hrs; read-out: Cell 72 h SAM Inhibition (MTAP −/−)
How it was run: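 HCT116 MTAP-deleted cells treated with 10-point 3-fold DMSO serial dilutions of compound for 72 hrs at 37° C. Cells lysed in cold 80% methanol/acetic acid extraction buffer with d3-SAM internal standard; SAM quantified by LC-MS/MS (MRM m/z 399.2→250.1).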

[4] = molecular target: T1, MAT2A homodimer (Homo sapiens, UniProt P31153); test: MAT2A biochemical assay (phosphate release, PiColorLock Gold); settings: recombinant MAT2A homodimer, 60 min pre-incubation, 25° C.; read-out: Enzyme Inhibition
T1 construct: inferred from Ni sepharose purification and imidazole elution; made in house; host or cells: SF9 insect cells, recombinant baculovirus (Bac to Bac, pFASTBAC1)
T1 sequence (P31153 whole entry): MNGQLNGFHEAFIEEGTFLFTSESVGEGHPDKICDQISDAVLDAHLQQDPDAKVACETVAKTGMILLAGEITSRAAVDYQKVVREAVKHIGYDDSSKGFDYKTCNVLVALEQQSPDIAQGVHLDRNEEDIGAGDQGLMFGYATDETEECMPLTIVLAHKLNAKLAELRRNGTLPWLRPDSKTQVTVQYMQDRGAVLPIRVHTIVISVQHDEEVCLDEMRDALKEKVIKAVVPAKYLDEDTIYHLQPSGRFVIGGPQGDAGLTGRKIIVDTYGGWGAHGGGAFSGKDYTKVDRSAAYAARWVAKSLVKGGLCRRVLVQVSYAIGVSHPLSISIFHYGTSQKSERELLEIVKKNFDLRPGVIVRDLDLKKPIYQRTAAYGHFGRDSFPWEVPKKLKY
How it was run: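 Baculovirus/Sf9-expressed, Ni-purified MAT2A homodimer (4 µg/mL in pH 8.0 Tris/KCl/MgCl2 buffer) preincubated 60 min at 25 °C with compound (2% DMSO final). Substrate mix of 500 µM ATP and 400 µM L-methionine added; 60 min at 25 °C; released phosphate quantified colorimetrically against a phosphate standard curve.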

Row | Structure (SMILES) | pIC50 [1] | pIC50 [2] | pIC50 [3] | pIC50 [4]
1 | CN(C)c1c2cc(-n3nc4ccc(OCC(F)F)nc4c(-c4ccc(OC(F)F)cc4)c3=O)ccc2nn1C [Example 203, 6-(2,2-difluoroethoxy)-4-(4-(difluoromethoxy)phenyl)-2-(3-(dimethylamino)-2-methyl-2H-indazol-5-yl)pyrido[3,2-c]pyridazin-3(2H)-one] | > 7.00 | 6.00 to 7.00 | > 7.00 | > 7.00
2 | Cn1cc2cc(-n3nc4ccc(NCC(F)(F)F)nc4c(-c4ccc(Cl)cc4)c3=O)ccc2n1 [Example 154] | > 7.00 | ≤ 6.00 | > 7.00 | > 7.00
3 | CCOc1ccc2nn(-c3ccc(OC)cc3)c(=O)c(-c3ccc(OC(F)F)cc3)c2n1 [Example 135] | 6.00 to 7.00 | ≤ 6.00 | > 7.00 | > 7.00
4 | CCNc1ccc2nn(-c3ccc4nc(C)n(C)c4c3)c(=O)c(-c3ccc(C(F)F)nc3)c2n1 [Example 327] | > 7.00 | ≤ 6.00 | > 7.00 | > 7.00
5 | O=c1c(-c2ccc(OC(F)F)cc2)c2nc(OCC(F)F)ccc2nn1-c1ccc2c(c1)OCCO2 [Example 177] | > 7.00 | 6.00 to 7.00 | > 7.00 | > 7.00
6 | CN1CCOc2ccc(-n3nc4ccc(OCC(F)F)nc4c(-c4ccc(OC(F)F)cc4)c3=O)cc21 [Example 180] | > 7.00 | ≤ 6.00 | > 7.00 | > 7.00
7 | O=c1c(-c2ccc(OC(F)F)cc2)c2nc(OCC(F)F)ccc2nn1-c1ccc2ncncc2c1 [Example 179] | 6.00 to 7.00 | ≤ 6.00 | > 7.00 | > 7.00
8 | O=c1c(-c2ccc(Br)cc2)c2nc(OCC(F)F)ccc2nn1-c1ccc2ncsc2c1 [Example 201, 2-(benzo[d]thiazol-6-yl)-4-(4-bromophenyl)-6-(2,2-difluoroethoxy)pyrido[3,2-c]pyridazin-3(2H)-one] | > 7.00 | ≤ 6.00 | > 7.00 | > 7.00
9 | CCOc1ccc2nn(-c3ccc(OC)cc3)c(=O)c(-c3ccc(OC(F)(F)F)nc3)c2n1 [Example 136] | 6.00 to 7.00 | ≤ 6.00 | 6.00 to 7.00 | > 7.00
10 | CCNc1ccc2nn(-c3ccc4nn(C)cc4c3)c(=O)c(-c3ccc(OC(F)F)cc3)c2n1 [Example 159] | > 7.00 | ≤ 6.00 | > 7.00 | > 7.00
11 | COc1ccc(-c2c(=O)n(-c3ccc4ncsc4c3)nc3ccc(OCC(F)F)nc23)cc1 [Example 144] | > 7.00 | ≤ 6.00 | > 7.00 | > 7.00
12 | CNC(=O)c1ccc(-n2nc3ccc(OCC(F)F)nc3c(-c3ccc(OC(F)F)cc3)c2=O)cc1 [Example 189] | 6.00 to 7.00 | ≤ 6.00 | 6.00 to 7.00 | > 7.00
13 | Cc1c2cc(-n3nc4ccc(OCC(F)F)nc4c(-c4ccc(OC(F)F)cc4)c3=O)ccc2nn1C [Example 166, 6-(2,2-difluoroethoxy)-4-(4-(difluoromethoxy)phenyl)-2-(2,3-dimethyl-2H-indazol-5-yl)pyrido[3,2-c]pyridazin-3(2H)-one] | > 7.00 | ≤ 6.00 | > 7.00 | > 7.00
14 | O=c1c(-c2ccc(OC(F)F)cc2)c2nc(OCC(F)F)ccc2nn1-c1ccc2c(c1)CCO2 [Example 178] | > 7.00 | 6.00 to 7.00 | > 7.00 | > 7.00
15 | Cn1cc2cc(-n3nc4ccc(OCCC(F)(F)F)nc4c(-c4ccc(OC(F)F)cc4)c3=O)ccc2n1 [Example 132] | 6.00 to 7.00 | ≤ 6.00 | 6.00 to 7.00 | > 7.00
16 | CCOc1ccc2nn(-c3ccc(OC)cc3)c(=O)c(-c3ccc(Cl)cc3)c2n1 [Example 117] | > 7.00 | ≤ 6.00 | > 7.00 | > 7.00
17 | O=c1c(-c2ccc(OC(F)F)cc2)c2nc(OCC(F)F)ccc2nn1-c1ccc2ncccc2c1 [Example 183] | > 7.00 | 6.00 to 7.00 | > 7.00 | > 7.00
18 | O=c1c(-c2ccc(C3CC3)nc2)c2nc(OCC(F)F)ccc2nn1-c1ccc2ncsc2c1 [Example 147] | 6.00 to 7.00 | ≤ 6.00 | 6.00 to 7.00 | > 7.00
19 | Cn1cc2cc(-n3nc4ccc(OCC(F)F)nc4c(C4=CCC(O)CC4)c3=O)ccc2n1 (stereo not drawn) [Example 149] | 6.00 to 7.00 | ≤ 6.00 | > 7.00 | > 7.00
20 | [2H]C([2H])([2H])Oc1ccc(-c2c(=O)n(-c3ccc4ncsc4c3)nc3ccc(OCC(F)F)nc23)cc1 [Example 151] | > 7.00 | ≤ 6.00 | > 7.00 | > 7.00

Next, values leading:

Row | pIC50 [1] | pIC50 [2] | pIC50 [3] | pIC50 [4] | Structure (SMILES)
21 | > 7.00 | ≤ 6.00 | > 7.00 | > 7.00 | Cn1cc2cc(-n3nc4ccc(OCC(F)F)nc4c(-c4ccc5[nH]cc(C#N)c5c4)c3=O)ccc2n1 [Example 331, 5-(6-(2,2-difluoroethoxy)-2-(2-methyl-2H-indazol-5-yl)-3-oxo-2,3-dihydropyrido[3,2-c]pyridazin-4-yl)-1H-indole-3-carbonitrile]
22 | > 7.00 | ≤ 6.00 | > 7.00 | > 7.00 | CC(C)Oc1ccc2nn(-c3ccc4nn(C)cc4c3)c(=O)c(-c3ccc(Br)cc3)c2n1 [Example 199, 4-(4-bromophenyl)-6-isopropoxy-2-(2-methyl-2H-indazol-5-yl)pyrido[3,2-c]pyridazin-3(2H)-one]
23 | > 7.00 | ≤ 6.00 | > 7.00 | > 7.00 | Cc1ccc(-c2c(=O)n(-c3ccc4nn(C)cc4c3)nc3ccc(NCC(F)(F)F)nc23)cn1 [Example 301, 2-(2-methyl-2H-indazol-5-yl)-4-(6-methylpyridin-3-yl)-6-((2,2,2-trifluoroethyl)amino)pyrido[3,2-c]pyridazin-3(2H)-one]
24 | > 7.00 | ≤ 6.00 | > 7.00 | > 7.00 | Cn1cc2cc(-n3nc4ccc(OCC(F)F)nc4c(-c4ccc(C5CC5)nc4)c3=O)ccc2n1 [Example 107]
25 | > 7.00 | ≤ 6.00 | > 7.00 | > 7.00 | CC(C)Oc1ccc2nn(-c3ccc4nn(C)cc4c3)c(=O)c(-c3ccc(OC(F)F)cc3)c2n1 [Example 138]
26 | > 7.00 | ≤ 6.00 | > 7.00 | > 7.00 | Cn1cc2cc(-n3nc4ccc(NCC(F)F)nc4c(-c4ccc(C(F)F)nc4)c3=O)ccc2n1 [Example 319]
27 | ≤ 6.00 | ≤ 6.00 | 6.00 to 7.00 | > 7.00 | Cn1cc2cc(-n3nc4ccc(OCC5CCC5)nc4c(-c4ccc(OC(F)F)cc4)c3=O)ccc2n1 [Example 131]
28 | > 7.00 | ≤ 6.00 | > 7.00 | > 7.00 | Cc1ccc(-c2c(=O)n(-c3ccc4nn(C)cc4c3)nc3ccc(OCC4CC4)nc23)cn1 [Example 302]
29 | > 7.00 | 6.00 to 7.00 | > 7.00 | > 7.00 | [2H]C([2H])([2H])Oc1ccc(-c2c(=O)n(-c3ccc4nn(C)cc4c3)nc3ccc(OCC(F)F)nc23)cn1 [Example 139]
30 | 6.00 to 7.00 | ≤ 6.00 | > 7.00 | > 7.00 | Cn1cc2cc(-n3nc4ccc(OCC5CC5)nc4c(-c4ccc(Cl)cc4)c3=O)ccc2n1 [Example 101, 4-(4-chlorophenyl)-6-(cyclopropylmethoxy)-2-(2-methyl-2H-indazol-5-yl)pyrido[3,2-c]pyridazin-3(2H)-one]
31 | > 7.00 | ≤ 6.00 | > 7.00 | > 7.00 | Cn1cc2cc(-n3nc4ccc(OCC(F)F)nc4c(-c4ccc(OC(F)(F)F)nc4)c3=O)ccc2n1 [Example 128]
32 | 6.00 to 7.00 | ≤ 6.00 | > 7.00 | > 7.00 | Cn1cc2cc(-n3nc4ccc(OCC(F)F)nc4c(-c4ccc(O)cc4)c3=O)ccc2n1 [Example 207, 6-(2,2-difluoroethoxy)-4-(4-hydroxyphenyl)-2-(2-methyl-2H-indazol-5-yl)pyrido[3,2-c]pyridazin-3(2H)-one]
33 | > 7.00 | ≤ 6.00 | > 7.00 | > 7.00 | Cn1cc2cc(-n3nc4ccc(OCC(F)(F)F)nc4c(-c4ccc(Cl)cc4)c3=O)ccc2n1 [Example 116]
34 | 6.00 to 7.00 | ≤ 6.00 | 6.00 to 7.00 | > 7.00 | [2H]C([2H])([2H])Oc1ccc(-c2c(=O)n(-c3ccc4nn(C)cc4c3)nc3ccc(OCCF)nc23)cc1 [Example 157]
35 | > 7.00 | ≤ 6.00 | > 7.00 | > 7.00 | Cn1cc2cc(-n3nc4ccc(OCCF)nc4c(-c4ccc(OC(F)F)cc4)c3=O)ccc2n1 [Example 129]
36 | > 7.00 | 6.00 to 7.00 | > 7.00 | > 7.00 | [2H]C([2H])([2H])Oc1ccc(-c2c(=O)n(-c3ccc4nn(C)cc4c3)nc3ccc(OCC)nc23)cc1 [Example 110]
